Results reported in ChEMBL document CHEMBL1811863, “New 5-deoxyflavonoids and their inhibitory effects on protein tyrosine phosphatase 1B (PTP1B) activity” (Bioorg Med Chem, 2011).

Biological target: T1, Tyrosine-protein phosphatase non-receptor type 1 (Homo sapiens, UniProt P18031)
T1 sequence (P18031 whole entry): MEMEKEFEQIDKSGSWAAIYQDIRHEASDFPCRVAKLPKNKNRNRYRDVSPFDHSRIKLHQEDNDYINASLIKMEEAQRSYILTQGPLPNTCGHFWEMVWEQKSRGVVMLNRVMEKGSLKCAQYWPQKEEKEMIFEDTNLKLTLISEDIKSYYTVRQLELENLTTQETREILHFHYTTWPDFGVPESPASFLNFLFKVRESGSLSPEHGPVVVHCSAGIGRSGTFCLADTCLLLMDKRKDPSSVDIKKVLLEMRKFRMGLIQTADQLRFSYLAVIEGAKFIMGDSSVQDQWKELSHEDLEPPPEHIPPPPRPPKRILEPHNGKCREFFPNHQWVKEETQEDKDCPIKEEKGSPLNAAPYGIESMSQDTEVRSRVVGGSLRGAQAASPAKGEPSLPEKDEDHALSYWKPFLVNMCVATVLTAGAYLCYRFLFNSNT
Experiment: Inhibition of human recombinant PTP1B assessed as p-nitorphenol production after 30 mins

| Structure (SMILES) | IC50 [µM] |
| --- | --- |
| CC(C)=CCc1cc([C@@H]2CC(=O)c3ccc(O)cc3O2)ccc1O [ABYSSINONE II] | 29.2 |
| O=C1C[C@@H](c2ccc(O)cc2)Oc2cc(O)ccc21 [LIQUIRTIGENIN] | > 100 |
| COc1cc([C@@H]2CC(=O)c3ccc(O)cc3O2)ccc1O | 98.1 |
| COc1ccc(C2CC(=O)c3ccc(O)cc3O2)cc1CC=C(C)C (configuration not stated) | 16.5 |
| O=Cc1cc([C@@H]2CC(=O)c3ccc(O)cc3O2)ccc1O [ERYTHRIBYSSIN K] | > 100 |
| CC(C)=CCc1cc([C@@H]2CC(=O)c3c(O)cc(O)cc3O2)cc(CC=C(C)C)c1O [ABYSSINONE V] | 22.6 |
| COc1cc(OC)c([C@H]2COc3cc(O)ccc3C2=O)cc1CC=C(C)C [ERYTHRIBYSSIN E] | 15.2 |
| CC(C)=CCc1cc([C@@H]2CC(=O)c3ccc(O)cc3O2)cc2c1OC(C)(C)C=C2 [ABYSSINONES III] | 72.9 |
| CC(C)=CCc1cc([C@@H]2CC(=O)c3ccc(O)cc3O2)cc2c1OC(C)(C)C(O)C2 (some centres not stated) [ERYTHRIBYSSIN G] | 35.8 |
| COc1cc(O)c([C@]2(O)COc3cc(O)ccc3C2=O)cc1CC=C(C)C [ERYTHRIBYSSIN J] | 14.9 |
| COc1cc(O)c(C2COc3cc(O)ccc3C2=O)cc1CC=C(C)C (configuration not stated) [PROSTRATOL C] | 17.2 |
| CC1(C)Oc2ccc([C@@H]3CC(=O)c4ccc(O)cc4O3)cc2CC1O (some centres not stated) [ERYTHRIBYSSIN I] | > 100 |
